From patent publication US11986532B2 (Arvinas Operations, Inc., priority 2021, dated 2024)

Target: T1, BCL6 (Homo sapiens, UniProt P41182)
T1 construct: endogenous in cells; host or cells: T47D breast cancer epithelial cells
Experiment: Immunofluorescence protocol for high content imaging of BCL6 (degradation) in T47D cells, 3 days compound treatment
Assay type: cell-based
Conditions: for Dmax: T47D, read-out: Mean Dmax (%)** category; for DC50: read-out: Mean DC50 (nM)* category
Procedure, shortened: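 Read-out: high-content imaging of anti-BCL6 immunofluorescence (Alexa-488 secondary) with CellMask and Hoechst counterstains, 10×, 4 fields/well. Cells had 3 days of compound exposure at 37° C, 5% CO2, 11-point 3-fold series from a final top of 0.1 or 1 μM.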

Compound | Dmax [%] | DC50 [nM]
CNC(=O)COc1cc2cc(Nc3nc(N4CCC(O[C@H]5C[C@H](N6CCC(c7ccc8c(c7)CN(C7CCC(=O)NC7=O)C8=O)C(F)(F)C6)C5)CC4)ncc3Cl)ccc2n(C(C)C)c1=O (stereo partly drawn) [Compound 218, 2-[[6-[[5-chloro-2-[4-[3-[4-[2-(2,6-dioxo-3-piperidyl)-1-oxo-isoindolin-5-yl]-3,3-difluoro-1-piperidyl]cyclobutoxy]-1-piperidyl]pyrimidin-4-yl]amino]-1-isopropyl-2-oxo-3-quinolyl]oxy]-N-methyl-acetamide] | ≥ 70 | < 10
CNC(=O)COc1cc2cc(Nc3nc(N4CCC(O[C@H]5C[C@H](N6CCC(c7cc8c(cn7)C(=O)N(C7CCC(=O)NC7=O)C8)CC6)C5)CC4)ncc3Cl)ccc2n(C(C)C)c1=O (stereo partly drawn) [Compound 219, 2-({6-[(5-chloro-2-{4-[(1r,3r)-3-{4-[2-(2,6-dioxopiperidin-3-yl)-3-oxo-1H,2H,3H-pyrrolo[3,4-c]pyridin-6-yl]piperidin-1-yl}cyclobutoxy]piperidin-1-yl}pyrimidin-4-yl)amino]-2-oxo-1-(propan-2-yl)-1,2-dihydroquinolin-3-yl}oxy)-N-methylacetamide] | 50 to 70 | < 10
CNC(=O)COc1cc2cc(Nc3nc(N4CCC(N5CCC56CN(C5CCN(c7ccc8c(c7)C(=O)N(C7CCC(=O)NC7=O)C8=O)CC5)C6)CC4)ncc3Cl)ccc2n(C(C)C)c1=O (stereo not drawn) [Compound 220, 2-{[6-({5-chloro-2-[4-(6-{1-[2-(2,6-dioxopiperidin-3-yl)-1,3-dioxo-2,3-dihydro-1H-isoindol-5-yl]piperidin-4-yl}-1,6-diazaspiro[3.3]heptan-1-yl)piperidin-1-yl]pyrimidin-4-yl}amino)-2-oxo-1-(propan-2-yl)-1,2-dihydroquinolin-3-yl]oxy}-N-methylacetamide] | 50 to 70 | 10 to 50
CNC(=O)COc1cc2cc(Nc3nc(N4CCC(N5CCC56CN(C5CCN(c7ccc8c(c7)C(=O)N(C7CCC(=O)NC7=O)C8=O)C5)C6)CC4)ncc3Cl)ccc2n(C(C)C)c1=O (stereo not drawn) [Compound 221, 2-{[6-({5-chloro-2-[4-(6-{1-[2-(2,6-dioxopiperidin-3-yl)-1,3-dioxo-2,3-dihydro-1H-isoindol-5-yl]pyrrolidin-3-yl}-1,6-diazaspiro[3.3]heptan-1-yl)piperidin-1-yl]pyrimidin-4-yl}amino)-2-oxo-1-(propan-2-yl)-1,2-dihydroquinolin-3-yl]oxy}-N-methylacetamide] | 50 to 70 | < 10
CNC(=O)COc1cc2cc(Nc3nc(N4CCC(N5CCC56CN(C5CCCN(c7ccc8c(c7)CN(C7CCC(=O)NC7=O)C8=O)C5)C6)CC4)ncc3Cl)ccc2n(C(C)C)c1=O (stereo not drawn) [Compound 222, 2-{[6-({5-chloro-2-[4-(6-{1-[2-(2,6-dioxopiperidin-3-yl)-1-oxo-2,3-dihydro-1H-isoindol-5-yl]piperidin-3-yl}-1,6-diazaspiro[3.3]heptan-1-yl)piperidin-1-yl]pyrimidin-4-yl}amino)-2-oxo-1-(propan-2-yl)-1,2-dihydroquinolin-3-yl]oxy}-N-methylacetamide] | 50 to 70 | < 10
CNC(=O)COc1cc2cc(Nc3nc(N4CCC(N5CCC6(C5)CN(C5CCN(c7ccc8c(c7)C(=O)N(C7CCC(=O)NC7=O)C8=O)CC5)C6)CC4)ncc3Cl)ccc2n(C(C)C)c1=O (stereo not drawn) [Compound 224, 2-{[6-({5-chloro-2-[4-(2-{1-[2-(2,6-dioxopiperidin-3-yl)-1,3-dioxo-2,3-dihydro-1H-isoindol-5-yl]piperidin-4-yl}-2,6-diazaspiro[3.4]octan-6-yl)piperidin-1-yl]pyrimidin-4-yl}amino)-2-oxo-1-(propan-2-yl)-1,2-dihydroquinolin-3-yl]oxy}-N-methylacetamide] | ≥ 70 | 10 to 50
[2H]C([2H])([2H])Oc1c(N2CC3(CCC(OC4CCN(c5ncc(Cl)c(Nc6ccc7c(c6)cc(OCC(=O)NC)c(=O)n7C(C)C)n5)CC4)CC3)C2)ccc2c1CN(C1CCC(=O)NC1=O)C2=O (stereo not drawn) [Compound 225, 2-((6-((5-chloro-2-(4-((2-(2-(2,6-dioxopiperidin-3-yl)-4-(methoxy-d3)-1-oxoisoindolin-5-yl)-2-azaspiro[3.5]nonan-7-yl)oxy)piperidin-1-yl)pyrimidin-4-yl)amino)-1-isopropyl-2-oxo-1,2-dihydroquinolin-3-yl)oxy)-N-methylacetamide] | ≥ 70 | < 10
CNC(=O)COc1cc2cc(Nc3nc(N4CCC(O[C@H]5C[C@H](N6CCC(c7ccc8c(c7C(F)(F)F)CN(C7CCC(=O)NC7=O)C8=O)CC6)C5)CC4)ncc3Cl)ccc2n(C(C)C)c1=O (stereo partly drawn) [Compound 226, 2-({6-[(5-chloro-2-{4-[(1r,3r)-3-{4-[2-(2,6-dioxopiperidin-3-yl)-1-oxo-4-(trifluoromethyl)-2,3-dihydro-1H-isoindol-5-yl]piperidin-1-yl}cyclobutoxy]piperidin-1-yl}pyrimidin-4-yl)amino]-2-oxo-1-(propan-2-yl)-1,2-dihydroquinolin-3-yl}oxy)-N-methylacetamide] | ≥ 70 | < 10
[2H]C([2H])([2H])Oc1c(N2CC3(CCN(CC4CCN(c5ncc(Cl)c(Nc6ccc7c(c6)cc(OCC(=O)NC)c(=O)n7C(C)C)n5)CC4)CC3)C2(C)C)ccc2c1CN(C1CCC(=O)NC1=O)C2=O (stereo not drawn) [Compound 227, 2-{[6-({5-chloro-2-[4-({2-[2-(2,6-dioxopiperidin-3-yl)-4-(^2H3)methoxy-1-oxo-2,3-dihydro-1H-isoindol-5-yl]-1,1-dimethyl-2,7-diazaspiro[3.5]nonan-7-yl}methyl)piperidin-1-yl]pyrimidin-4-yl}amino)-2-oxo-1-(propan-2-yl)-1,2-dihydroquinolin-3-yl]oxy}-N-methylacetamide] | 50 to 70 | < 10
CNC(=O)COc1cc2cc(Nc3nc(N4CCC(N5CCC6(CN(CC7CCN(c8ccc9c(c8)C(=O)N(C8CCC(=O)NC8=O)C9=O)CC7)C6)C5)CC4)ncc3Cl)ccc2n(C(C)C)c1=O (stereo not drawn) [Compound 228, 2-({6-[(5-chloro-2-{4-[2-({1-[2-(2,6-dioxopiperidin-3-yl)-1,3-dioxo-2,3-dihydro-1H-isoindol-5-yl]piperidin-4-yl}methyl)-2,6-diazaspiro[3.4]octan-6-yl]piperidin-1-yl}pyrimidin-4-yl)amino]-2-oxo-1-(propan-2-yl)-1,2-dihydroquinolin-3-yl}oxy)-N-methylacetamide] | 50 to 70 | 10 to 50
CNC(=O)COc1cc2cc(Nc3cc(N4CCC(CN5CCC6(CC5)CN(c5ccc7c(c5F)CN(C5CCC(=O)NC5=O)C7=O)C6(C)C)CC4)ncc3Cl)ccc2n(C(C)C)c1=O (stereo not drawn) [Compound 229, 2-{[6-({5-chloro-2-[4-({2-[2-(2,6-dioxopiperidin-3-yl)-4-fluoro-1-oxo-2,3-dihydro-1H-isoindol-5-yl]-1,1-dimethyl-2,7-diazaspiro[3.5]nonan-7-yl}methyl)piperidin-1-yl]pyridin-4-yl}amino)-2-oxo-1-(propan-2-yl)-1,2-dihydroquinolin-3-yl]oxy}-N-methylacetamide] | ≥ 70 | < 10
CNC(=O)COc1cc2cc(Nc3cc(N4CCC(CN5CCC6(CC5)CN(c5ccc7c(c5OC)CN(C5CCC(=O)NC5=O)C7=O)C6(C)C)CC4)ncc3Cl)ccc2n(C(C)C)c1=O (stereo not drawn) [Compound 230, 2-{[6-({5-chloro-2-[4-({2-[2-(2,6-dioxopiperidin-3-yl)-4-methoxy-1-oxo-2,3-dihydro-1H-isoindol-5-yl]-1,1-dimethyl-2,7-diazaspiro[3.5]nonan-7-yl}methyl)piperidin-1-yl]pyridin-4-yl}amino)-2-oxo-1-(propan-2-yl)-1,2-dihydroquinolin-3-yl]oxy}-N-methylacetamide] |  | < 10
CNC(=O)COc1cc2cc(Nc3cc(N4CCC(CN5CCC6(CN(c7ccc8c(c7)CN(C7CCC(=O)NC7=O)C8=O)C6)C(F)(F)C5)CC4)ncc3Cl)ccc2n(C(C)C)c1=O (stereo not drawn) [Compound 231, 2-{[6-({5-chloro-2-[4-({2-[2-(2,6-dioxopiperidin-3-yl)-1-oxo-2,3-dihydro-1H-isoindol-5-yl]-5,5-difluoro-2,7-diazaspiro[3.5]nonan-7-yl}methyl)piperidin-1-yl]pyridin-4-yl}amino)-2-oxo-1-(propan-2-yl)-1,2-dihydroquinolin-3-yl]oxy}-N-methylacetamide] | 50 to 70 | < 10
CNC(=O)COc1cc2cc(Nc3cc(N4CCC(CN5CCC6(CN(c7ccc8c(c7OC)CN(C7CCC(=O)NC7=O)C8=O)C6)C(F)(F)C5)CC4)ncc3Cl)ccc2n(C(C)C)c1=O (stereo not drawn) [Compound 232, 2-{[6-({5-chloro-2-[4-({2-[2-(2,6-dioxopiperidin-3-yl)-4-methoxy-1-oxo-2,3-dihydro-1H-isoindol-5-yl]-5,5-difluoro-2,7-diazaspiro[3.5]nonan-7-yl}methyl)piperidin-1-yl]pyridin-4-yl}amino)-2-oxo-1-(propan-2-yl)-1,2-dihydroquinolin-3-yl]oxy}-N-methylacetamide] |  | < 10
CNC(=O)COc1cc2cc(Nc3cc(N4CCC(CN5CCC6(CC5)CN(c5ccc7c(c5)CN(C5CCC(=O)NC5=O)C7=O)C6(C)C)CC4)ncc3Cl)ccc2n(C(C)C)c1=O (stereo not drawn) [Compound 233, 2-{[6-({5-chloro-2-[4-({2-[2-(2,6-dioxopiperidin-3-yl)-1-oxo-2,3-dihydro-1H-isoindol-5-yl]-1,1-dimethyl-2,7-diazaspiro[3.5]nonan-7-yl}methyl)piperidin-1-yl]pyridin-4-yl}amino)-2-oxo-1-(propan-2-yl)-1,2-dihydroquinolin-3-yl]oxy}-N-methylacetamide] | 50 to 70 | < 10
CNC(=O)COc1cc2cc(Nc3nc(N4CCC(N5CCC56CN(C5CCN(c7ccc8c(c7)CN(C7CCC(=O)NC7=O)C8=O)C5)C6)CC4)ncc3Cl)ccc2n(C(C)C)c1=O (stereo not drawn) [Compound 234, 2-{[6-({5-chloro-2-[4-(6-{1-[2-(2,6-dioxopiperidin-3-yl)-1-oxo-2,3-dihydro-1H-isoindol-5-yl]pyrrolidin-3-yl}-1,6-diazaspiro[3.3]heptan-1-yl)piperidin-1-yl]pyrimidin-4-yl}amino)-2-oxo-1-(propan-2-yl)-1,2-dihydroquinolin-3-yl]oxy}-N-methylacetamide] | 50 to 70 | < 10
